Measured values: publication PMC10454375, “Cell-Impermeable Inhibitors Confirm That Intracellular Human Transglutaminase 2 Is Responsible for the Transglutaminase-Associated Cancer Phenotype” (International Journal of Molecular Sciences, 2023)
Peptide text beside a SMILES is read from it. * marks the point of attachment. X1 = C=CC(=O)NCCCCC(NC(=O)OCc1ccccc1)C(=O)N1CCN(C(=O)C(CCC(=O)*)NC(=O)c2cccc3ccccc23)CC1

Tests used:
Recombinant human TG2 = target: T1, Recombinant human TG2 (Homo sapiens, UniProt P21980); test: rhTG2 inhibition assay, continuous chromogenic substrate AL5, Kitz and Wilson conditions; format: biochemical; details: for kinact / Ki: * compounds fitted to double reciprocal model, 25 °C, pH 6.9, 100 µM AL5; for kinact/KI: * double reciprocal model, ** lowest concentrations of saturation plot fitted to a linear model; for Ki: irreversible inhibition
T1 construct: GST (with PSP protease site, plasmid pGST-PSP-rhTG2) (N, cleaved yes); made in house; host or cells: E. coli (BL21)
T1 sequence (P21980 1-687): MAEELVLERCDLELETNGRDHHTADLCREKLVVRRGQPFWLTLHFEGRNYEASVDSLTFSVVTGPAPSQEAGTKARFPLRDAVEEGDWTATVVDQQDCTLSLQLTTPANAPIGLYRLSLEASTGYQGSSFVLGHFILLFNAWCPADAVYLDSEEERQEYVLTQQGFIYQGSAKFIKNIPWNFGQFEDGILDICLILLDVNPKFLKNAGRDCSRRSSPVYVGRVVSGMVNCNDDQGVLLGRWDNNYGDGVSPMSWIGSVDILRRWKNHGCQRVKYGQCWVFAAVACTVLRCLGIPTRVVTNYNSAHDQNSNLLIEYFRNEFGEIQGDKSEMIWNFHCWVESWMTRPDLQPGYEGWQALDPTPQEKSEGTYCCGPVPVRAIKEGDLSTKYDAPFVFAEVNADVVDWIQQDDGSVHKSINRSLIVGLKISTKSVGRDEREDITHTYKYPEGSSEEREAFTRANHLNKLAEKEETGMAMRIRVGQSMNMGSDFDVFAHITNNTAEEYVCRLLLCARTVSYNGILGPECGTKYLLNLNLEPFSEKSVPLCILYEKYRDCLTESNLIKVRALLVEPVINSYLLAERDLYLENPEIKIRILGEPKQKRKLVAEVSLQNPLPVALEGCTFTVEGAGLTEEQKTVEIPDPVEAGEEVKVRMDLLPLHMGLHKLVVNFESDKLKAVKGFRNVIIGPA
Source text: Relative to the original scaffold, we expected the potency of these novel chemical biology tools to decrease slightly, due to the additional bulk incorporated on the glutamate sidechain. Although we expected the sidechain moiety to be directed into bulk solvent, we were concerned that its mass and charge would disfavor the binding interaction. Therefore, we kinetically characterized these probes as rigorously as possible, in order to determine their relative affinity and reactivity. For most inhibitors we have made, including the parent inhibitor AA9 (Figure 1), we have been able to measure kinetic parameters under Kitz and Wilson conditions. This experimental approach is based on the use of a continuous activity assay and the measurement of first-order rate constants for the time-dependent inactivation of enzyme (see Figure 2A and Figures S1–S5 in Supplementary Materials). The dependence of these observed rate constants (kobs) on the inhibitor concentration divided by alpha ([I]/α) can then be fitted to a hyperbolic saturation model where the upper plateau represents the rate constant of inactivation (kinact), and the concentration providing half the rate constant of inactivation represents KI (Figure 2B). […] To compensate for this, the overall efficiency of the inhibitor (kinact/KI) can be derived from the slope of the linear region of the saturation plot (Figure 2C). To gauge the individual parameters, a double reciprocal fitting was also employed where KI can be calculated from the x-axis intercept and kinact can be calculated from the y-axis intercept (Figure 2D).
Recombinant human TG2 was expressed and purified using previously published protocols. The inhibition was monitored using a continuous chromogenic substrate AL5 [38] under Kitz and Wilson conditions. In brief, 125 µL of assay buffer composed of 111.11 mM MOPS, 15.56 CaCl2 pH 6.9 was added to a 1.5 mL Eppendorf tube to achieve final assay concentrations of 50 mM MOPS and […] CaCl2. To the tube was then added the respective concentration of inhibitor from an aqueous working stock (<5% DMSO final conditions). Various volumes of water were then added to ensure the final volumes were equal. The AL5 substrate was added to the Eppendorf tube as a 5 µL 5.56 mM solution in DMSO to obtain a final assay concentration of 100 µM. A 96-well polystyrene microplate then had 180 µL of the assay mixture added to it. The enzymatic reaction was finally initiated by addition of 20 µL 5 mU prediluted TG2 in assay buffer using a multichannel pipette. The reaction was monitored at 405 nm using a BioTek Synergy 4 plate reader for 20 min at 25 °C. A positive control with no inhibitor and a blank with no enzyme nor inhibitor were also included. The blank subtracted kinetic curves were then analyzed. The observed first-order rate constants of inactivation were gathered through a one-phase association model using the GraphPad software package. The rate constants were then fit to various models to elucidate the inhibition parameters. If saturation was achieved, they were fit to a saturation model versus the inhibitor concentration divided by alpha (where α=1+Substrate/Km ). A linear regression of the linear region of this saturation fitting was calculated to obtain a ratio of kinact/KI. A further double reciprocal model was used if saturation could not be observed due to the limitations in sensitivity of the assay or if solubility issues were present.

MDA-MB-231 cells = test: Cell proliferation assay, MDA-MB-231; format: cell-based; details: concentrations up to 100 µM, 48 h
Description: MDA-MB-468 cells were cultured in Dulbecco’s Modified Eagle Medium (DMEM)/F-12 DMEM, Gibco Laboratories, New York, NY, USA), 10% FBS (Gibco Laboratories, New York, NY, USA), 50 U/mL penicillin, and 50 μg/mL streptomycin (Gibco Laboratories, New York, NY, USA), while MDA-MB-231 and MDA-MB-436 cells were cultured in DMEM High Glucose with/stable L-Glutamine (EuroClone, Pero, MI, Italy), 10% FBS, and antibiotics, all grown at 37 °C and in 5% CO2 humidified atmosphere.
The compounds were added to the cultures at the concentrations of 25, 50, 75, and 100 μM and 0.1% DMSO represented the negative control. After 48 h, the cells were trypsinized for 2 min at 37 °C, trypsin was inactivated using 1 mL of the recovered supernatants (containing 10% FBS), centrifuged at room temperature 5 min at 1200 rpm, washed with PBS and resuspended in complete medium. Finally, 50 μL of cells were diluted in 500 μL of Count & Viability Reagent (Luminex, Prodotti Gianni, Milan, Italy) and analyzed by MUSE®.
The experiments were carried out in triplicate and the average ± SD of the percentage of living cells was reported. Statistical analysis was performed calculating p value by a Student’s t-test, two-tailed, with homovariance and significance expressed by (*) p value < 0.05.
Supplementary cellular evaluation figures
Concentration (µM) Concentration (µM)
Figure S10. […]

Row | Compound | kinact (Recombinant human TG2) | kinact/KI (Recombinant human TG2) | Ki (Recombinant human TG2) | effect on cell proliferation (MDA-MB-231 cells)
1 | C=CC(=O)NCCCCC(NC(=O)OCc1ccccc1)C(=O)N1CCN(C(=O)C(CCC(=O)NCC(=O)NCC(=O)NCC(=O)NC(CC(=O)O)C(=O)NC(CC(=O)O)C(=O)NC(CC(=O)O)C(=O)O)NC(=O)c2cccc3ccccc23)CC1 (stereo not shown) [Compound 18] (X1-GGGDDD-OH; configuration not given here) | 0.0388 s⁻¹ | 9380 M⁻¹ s⁻¹ | 4100 ± 2100 nM | did not have any effect on cell proliferation
2 | C=CC(=O)NCCCCC(NC(=O)OCc1ccccc1)C(=O)N1CCN(C(=O)C(CCC(=O)NCCCCCC(=O)NC(CC(=O)O)C(=O)NC(CC(=O)O)C(=O)NC(CC(=O)O)C(=O)O)NC(=O)c2cccc3ccccc23)CC1 (stereo not shown) [Compound 17] | 0.0065 s⁻¹ | 6820 M⁻¹ s⁻¹ | 1000 ± 300 nM | –
